Data as given in the supplement of paper PMC7645387.
± gives the standard deviation of the averaged measurements.

Legend:
Details in all cases: treatment time: 6 days
HDFB [1] = assay: cell viability relative to DMSO control; higher = less growth inhibition
Procedure: (§1)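 MCC cell lines (PeTa, MKL-1, MS-1, WaGa) and HDFB fibroblasts were treated for 6 days with serial dilutions (1e-11 to 1e-4 M) of single compounds in quadruplicate. Viability was read by CellTiter-Glo 2.0 and expressed as % of DMSO control.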

MKL-1 [2] = assay: as above
Procedure: as §1

PeTa [3] = assay: as above
Procedure: as §1

HDFB [4] = assay: growth inhibition relative to DMSO control (fraction); higher = stronger growth inhibition
Procedure: (§2)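 Drug combination matrices: GSK-LSD1 (0, 1, 10, 100 nM) was combined with a second epigenetic drug (0 to 10 uM) on MCC lines PeTa and MKL-1 and on HDFB fibroblasts for 6 days, in quadruplicate. Viability was read by CellTiter-Glo 2.0. The response is the fraction of growth inhibition relative to DMSO, as input to synergyfinder Bliss analysis.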

MKL-1 [5] = assay: as above
Procedure: as §2

PeTa [6] = assay: as above
Procedure: as §2

CCOC(=O)NCCCC(=O)NCCc1ccccc1 [Santacruzamate A]
cell viability [%]
Details | log10 concentration (M): -4 | log10 concentration (M): -5 | log10 concentration (M): -6 | log10 concentration (M): -7 | log10 concentration (M): -8 | log10 concentration (M): -9 | log10 concentration (M): -10 | log10 concentration (M): -11
HDFB [1] | 41.6 ± 3.4 | 103 ± 3.4 | 103 ± 3.5 | 99.8 ± 4.6 | 101 ± 3.4 | 101 ± 6.3 | 99.3 ± 7.7 | 100 ± 9.2
MKL-1 [2] | 34.9 ± 2.9 | 106 ± 1.2 | 105 ± 1.5 | 104 ± 1.9 | 103 ± 1.4 | 102 ± 3.4 | 99.3 ± 7.4 | 100 ± 1.6
PeTa [3] | 45.5 ± 14 | 104 ± 5.5 | 105 ± 2.4 | 99.9 ± 11 | 105 ± 1.4 | 103 ± 1.9 | 105 ± 3.6 | 103 ± 2.8

O=C(NC[C@H](O)CN1CCc2ccccc2C1)c1ccnc(NC2CCC2)c1 [GSK591]
cell viability [%]
Details | log10 concentration (M): -4 | log10 concentration (M): -5 | log10 concentration (M): -6 | log10 concentration (M): -7 | log10 concentration (M): -8 | log10 concentration (M): -9 | log10 concentration (M): -10 | log10 concentration (M): -11
HDFB [1] | 91.5 ± 3.5 | 115 ± 7.4 | 112 ± 5.1 | 117 ± 5.5 | 113 ± 3.1 | 104 ± 2.8 | 104 ± 2.1 | 101 ± 2
MKL-1 [2] | 37.2 ± 2.9 | 64.4 ± 12 | 72.4 ± 13 | 79.2 ± 16 | 84.2 ± 21 | 98.2 ± 17 | 111 ± 28 | 101 ± 22
PeTa [3] | 26.2 ± 2.9 | 80.4 ± 3.4 | 93.2 ± 3.1 | 103 ± 3.5 | 107 ± 7.2 | 108 ± 6.4 | 106 ± 7.8 | 100 ± 7.8

CN1CCN(c2ccc(-c3cccc(CN4CCOCC4)c3)cc2NC(=O)c2c[nH]c(=O)cc2C(F)(F)F)CC1 [OICR9429]
cell viability [%]
Details | log10 concentration (M): -4 | log10 concentration (M): -5 | log10 concentration (M): -6 | log10 concentration (M): -7 | log10 concentration (M): -8 | log10 concentration (M): -9 | log10 concentration (M): -10 | log10 concentration (M): -11
HDFB [1] | 42.7 ± 12 | 83.7 ± 5.2 | 97.6 ± 5.7 | 105 ± 3.1 | 117 ± 20 | 113 ± 7.9 | 108 ± 4.6 | 104 ± 4.1
MKL-1 [2] | 0.438 ± 0.44 | 57.6 ± 3.4 | 79.2 ± 7.5 | 87.1 ± 17 | 80.2 ± 6.2 | 85.8 ± 12 | 89.9 ± 12 | 85.7 ± 13
PeTa [3] | 49.1 ± 85 | 96.8 ± 45 | 103 ± 21 | 111 ± 21 | 119 ± 29 | 126 ± 27 | 122 ± 21 | 126 ± 25

c1ccc([C@@H]2C[C@H]2NC2CCNCC2)cc1 [GSK-LSD1] + Nc1ccccc1NC(=O)c1ccc(CNC(=O)OCc2cccnc2)cc1 [Entinostat]
growth inhibition
Details | partner concentration 0 nM | partner concentration 1 nM | partner concentration 10 nM | partner concentration 100 nM | partner concentration 1000 nM | partner concentration 10000 nM
HDFB [4], GSK-LSD1 concentration 0 nM | – | 0.0329 | 0.154 | 0.451 | 0.823 | 0.933
HDFB [4], GSK-LSD1 concentration 1 nM | 0.0914 | 0.124 | 0.111 | 0.467 | 0.822 | 0.944
HDFB [4], GSK-LSD1 concentration 10 nM | 0.24 | 0.233 | 0.246 | 0.421 | 0.81 | 0.947
HDFB [4], GSK-LSD1 concentration 100 nM | 0.259 | 0.26 | 0.254 | 0.473 | 0.798 | 0.949
MKL-1 [5], GSK-LSD1 concentration 0 nM | – | 0.0232 | 0.092 | 0.981 | 1 | 1
MKL-1 [5], GSK-LSD1 concentration 1 nM | 0.121 | 0.169 | 0.164 | 0.956 | 1 | 1
MKL-1 [5], GSK-LSD1 concentration 10 nM | 0.421 | 0.48 | 0.441 | 0.961 | 1 | 1
MKL-1 [5], GSK-LSD1 concentration 100 nM | 0.761 | 0.745 | 0.649 | 0.958 | 1 | 1
PeTa [6], GSK-LSD1 concentration 0 nM | – | -0.000953 | 0.132 | 0.963 | 1 | 1
PeTa [6], GSK-LSD1 concentration 1 nM | 0.0344 | 0.0611 | 0.145 | 0.975 | 1 | 1
PeTa [6], GSK-LSD1 concentration 10 nM | 0.459 | 0.465 | 0.561 | 0.998 | 1 | 1
PeTa [6], GSK-LSD1 concentration 100 nM | 0.787 | 0.776 | 0.761 | 0.974 | 1 | 1

c1ccc([C@@H]2C[C@H]2NC2CCNCC2)cc1 [GSK-LSD1] + O=C(NC[C@H](O)CN1CCc2ccccc2C1)c1ccnc(NC2CCC2)c1 [GSK591]
growth inhibition
Details | partner concentration 0 nM | partner concentration 1 nM | partner concentration 10 nM | partner concentration 100 nM | partner concentration 1000 nM | partner concentration 10000 nM
HDFB [4], GSK-LSD1 concentration 0 nM | – | -0.0108 | 0.034 | 0.242 | 0.285 | 0.348
HDFB [4], GSK-LSD1 concentration 1 nM | -0.00486 | 0.0263 | 0.00718 | 0.199 | 0.324 | 0.372
HDFB [4], GSK-LSD1 concentration 10 nM | 0.0391 | 0.0408 | 0.0239 | 0.215 | 0.342 | 0.42
HDFB [4], GSK-LSD1 concentration 100 nM | 0.0873 | 0.0906 | 0.093 | 0.285 | 0.355 | 0.44
MKL-1 [5], GSK-LSD1 concentration 0 nM | – | 0.00697 | 0.0188 | 0.133 | 0.269 | 0.324
MKL-1 [5], GSK-LSD1 concentration 1 nM | 0.144 | 0.148 | 0.163 | 0.253 | 0.423 | 0.432
MKL-1 [5], GSK-LSD1 concentration 10 nM | 0.46 | 0.501 | 0.536 | 0.626 | 0.773 | 0.789
MKL-1 [5], GSK-LSD1 concentration 100 nM | 0.733 | 0.769 | 0.754 | 0.771 | 0.894 | 0.849
PeTa [6], GSK-LSD1 concentration 0 nM | – | -0.0144 | -0.0251 | 0.0642 | 0.125 | 0.21
PeTa [6], GSK-LSD1 concentration 1 nM | 0.11 | 0.135 | 0.102 | 0.201 | 0.287 | 0.302
PeTa [6], GSK-LSD1 concentration 10 nM | 0.615 | 0.624 | 0.611 | 0.64 | 0.731 | 0.679
PeTa [6], GSK-LSD1 concentration 100 nM | 0.761 | 0.746 | 0.73 | 0.779 | 0.866 | 0.797
